Each compound was assayed against T1, DPP-IV (dipeptidyl peptidase IV from porcine kidney) (Sus scrofa, UniProt P22411) (assay: Test of resistance to dipeptidyl peptidase IV (DPP-IV)). Conditions: half-life (t1/2) in DPP-IV solution at 37° C., GLP-1 of Comparative Example 1 defined as standard (=1).
T1 construct: dipeptidyl peptidase IV from porcine kidney, product of SIGMA; purchased SIGMA; host or cells: porcine kidney (tissue-derived enzyme)
T1 sequence (P22411 whole entry): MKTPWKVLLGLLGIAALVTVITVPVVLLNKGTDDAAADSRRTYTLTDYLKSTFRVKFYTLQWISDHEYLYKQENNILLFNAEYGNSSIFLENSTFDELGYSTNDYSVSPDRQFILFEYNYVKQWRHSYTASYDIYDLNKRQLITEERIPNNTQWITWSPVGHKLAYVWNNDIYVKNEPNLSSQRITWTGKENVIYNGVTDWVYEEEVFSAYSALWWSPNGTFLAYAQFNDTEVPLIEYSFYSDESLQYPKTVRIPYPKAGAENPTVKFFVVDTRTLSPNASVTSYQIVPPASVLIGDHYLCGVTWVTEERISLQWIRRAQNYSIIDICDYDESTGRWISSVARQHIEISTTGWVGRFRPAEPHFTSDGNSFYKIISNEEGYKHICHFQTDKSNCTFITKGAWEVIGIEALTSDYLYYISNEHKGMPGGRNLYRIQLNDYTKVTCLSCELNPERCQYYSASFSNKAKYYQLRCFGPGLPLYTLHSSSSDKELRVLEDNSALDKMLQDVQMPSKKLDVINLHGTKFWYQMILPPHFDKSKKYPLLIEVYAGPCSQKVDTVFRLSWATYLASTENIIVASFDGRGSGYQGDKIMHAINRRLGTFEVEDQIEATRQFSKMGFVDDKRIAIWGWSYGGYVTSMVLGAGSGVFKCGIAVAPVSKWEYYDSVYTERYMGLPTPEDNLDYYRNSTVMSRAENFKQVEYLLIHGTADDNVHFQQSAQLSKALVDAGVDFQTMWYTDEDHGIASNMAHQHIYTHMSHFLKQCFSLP
Format: in vitro ADME
Experimental: Each solution mixture was adjusted with 100 mM sodium phosphate buffer to 100 μl in total and allowed to react at 37° C. A 10 μaliquot of the reaction solution was mixed with 15 μl of 10% trifluoroacetic acid prepared in advance in another Eppendorf tube.
`CC[C@H](C)[C@H](NC(=O)[C@H](Cc1ccccc1)NC(=O)[C@H](CCC(=O)O)NC(=O)[C@H](CCCCN)NC(=O)[C@H](C)NC(=O)[C@H](C)NC(=O)[C@H](CCC(N)=O)NC(=O)[C@H](CSCC(=O)N[C@@H]1O[C@H](CO)[C@@H](O[C@@H]2O[C@H](CO)[C@@H](O[C@@H]3O[C@H](CO[C@H]4O[C@H](CO)[C@@H](O)[C@H](O)[C@@H]4O[C@@H]4O[C@H](CO)[C@@H](O[C@@H]5O[C@H](CO[C@]6(C(=O)O)C[C@H](O)[C@@H](NC(C)=O)[C@H]([C@H](O)[C@H](O)CO)O6)[C@H](O)[C@H](O)[C@H]5O)[C@H](O)[C@H]4NC(C)=O)[C@@H](O)[C@H](O[C@H]4O[C@H](CO)[C@@H](O)[C@H](O)[C@@H]4O[C@@H]4O[C@H](CO)[C@@H](O[C@@H]5O[C@H](CO[C@]6(C(=O)O)C[C@H](O)[C@@H](NC(C)=O)[C@H]([C@H](O)[C@H](O)CO)O6)[C@H](O)[C@H](O)[C@H]5O)[C@H](O)[C@H]4NC(C)=O)[C@@H]3O)[C@H](O)[C@H]2NC(C)=O)[C@H](O)[C@H]1NC(C)=O)NC(=O)[C@H](CCC(=O)O)NC(=O)[C@H](CC(C)C)NC(=O)[C@H](Cc1ccc(O)cc1)NC(=O)[C@H](CO)NC(=O)[C@H](CO)NC(=O)[C@@H](NC(=O)[C@H](CC(=O)O)NC(=O)[C@H](CO)NC(=O)[C@@H](NC(=O)[C@H](Cc1ccccc1)NC(=O)[C@@H](NC(=O)CNC(=O)[C@H](CCC(=O)O)NC(=O)[C@H](C)NC(=O)[C@@H](N)Cc1c[nH]cn1)[C@@H](C)O)[C@@H](C)O)C(C)C)C(=O)N[C@@H](C)C(=O)N[C@@H](Cc1c[nH]c2ccccc12)C(=O)N[C@@H](CC(C)C)C(=O)N[C@H](C(=O)N[C@@H](CCCCN)C(=O)NCC(=O)N[C@@H](CSCC(=O)N[C@@H]1O[C@H](CO)[C@@H](O[C@@H]2O[C@H](CO)[C@@H](O[C@@H]3O[C@H](CO[C@H]4O[C@H](CO)[C@@H](O)[C@H](O)[C@@H]4O[C@@H]4O[C@H](CO)[C@@H](O[C@@H]5O[C@H](CO[C@]6(C(=O)O)C[C@H](O)[C@@H](NC(C)=O)[C@H]([C@H](O)[C@H](O)CO)O6)[C@H](O)[C@H](O)[C@H]5O)[C@H](O)[C@H]4NC(C)=O)[C@@H](O)[C@H](O[C@H]4O[C@H](CO)[C@@H](O)[C@H](O)[C@@H]4O[C@@H]4O[C@H](CO)[C@@H](O[C@@H]5O[C@H](CO[C@]6(C(=O)O)C[C@H](O)[C@@H](NC(C)=O)[C@H]([C@H](O)[C@H](O)CO)O6)[C@H](O)[C@H](O)[C@H]5O)[C@H](O)[C@H]4NC(C)=O)[C@@H]3O)[C@H](O)[C@H]2NC(C)=O)[C@H](O)[C@H]1NC(C)=O)C(=O)NCC(=O)O)C(C)C` [Example 4, 22 and 36Cys-disialo oligosaccharide Chain Added GLP-1] was tested, and the “Relative Resistance” value was 22.5. With `CC[C@H](C)[C@H](NC(=O)[C@H](Cc1ccccc1)NC(=O)[C@H](CCC(=O)O)NC(=O)[C@H](CCCCN)NC(=O)[C@H](C)NC(=O)[C@H](C)NC(=O)[C@H](CCC(N)=O)NC(=O)CNC(=O)[C@H](CCC(=O)O)NC(=O)[C@H](CC(C)C)NC(=O)[C@H](Cc1ccc(O)cc1)NC(=O)[C@H](CO)NC(=O)[C@H](CO)NC(=O)[C@@H](NC(=O)[C@H](CC(=O)O)NC(=O)[C@H](CO)NC(=O)[C@@H](NC(=O)[C@H](Cc1ccccc1)NC(=O)[C@@H](NC(=O)CNC(=O)[C@H](CCC(=O)O)NC(=O)[C@H](C)NC(=O)[C@@H](N)Cc1c[nH]cn1)[C@@H](C)O)[C@@H](C)O)C(C)C)C(=O)N[C@@H](CSCC(=O)N[C@@H]1O[C@H](CO)[C@@H](O)[C@H](O[C@@H]2O[C@H](C(=O)O)[C@@H](O[C@@H]3O[C@H](CO)[C@@H](O)[C@H](O[C@@H]4O[C@H](C(=O)O)[C@@H](O[C@@H]5O[C@H](CO)[C@@H](O)[C@H](O[C@@H]6O[C@H](C(=O)O)[C@@H](O[C@@H]7O[C@H](CO)[C@@H](O)[C@H](O[C@@H]8O[C@H](C(=O)O)[C@@H](O)[C@H](O)[C@H]8O)[C@H]7NC(C)=O)[C@H](O)[C@H]6O)[C@H]5NC(C)=O)[C@H](O)[C@H]4O)[C@H]3NC(C)=O)[C@H](O)[C@H]2O)[C@H]1NC(C)=O)C(=O)N[C@@H](Cc1c[nH]c2ccccc12)C(=O)N[C@@H](CC(C)C)C(=O)N[C@H](C(=O)N[C@@H](CCCCN)C(=O)NCC(=O)N[C@@H](CCCNC(=N)N)C(=O)NCC(=O)O)C(C)C` [Example 7, 30Cys-hyaluronic acid octasaccharide (HA-8) Added GLP-1 Peptide] the “Relative Resistance” value was 3.4. For `CC[C@H](C)[C@H](NC(=O)[C@H](Cc1ccccc1)NC(=O)[C@H](CCC(=O)O)NC(=O)[C@H](CCCCN)NC(=O)[C@H](C)NC(=O)[C@H](C)NC(=O)[C@H](CCC(N)=O)NC(=O)CNC(=O)[C@H](CCC(=O)O)NC(=O)[C@H](CC(C)C)NC(=O)[C@H](Cc1ccc(O)cc1)NC(=O)[C@H](CO)NC(=O)[C@H](CO)NC(=O)[C@@H](NC(=O)[C@H](CC(=O)O)NC(=O)[C@H](CO)NC(=O)[C@@H](NC(=O)[C@H](Cc1ccccc1)NC(=O)[C@@H](NC(=O)CNC(=O)[C@H](CCC(=O)O)NC(=O)[C@H](C)NC(=O)[C@@H](N)Cc1c[nH]cn1)[C@@H](C)O)[C@@H](C)O)C(C)C)C(=O)N[C@@H](CSCC(=O)N[C@@H]1O[C@H](CO)[C@@H](O[C@@H]2O[C@H](CO)[C@@H](O[C@@H]3O[C@H](CO[C@H]4O[C@H](CO)[C@@H](O)[C@H](O)[C@@H]4O[C@@H]4O[C@H](CO)[C@@H](O[C@@H]5O[C@H](CO[C@]6(C(=O)O)C[C@H](O)[C@@H](NC(C)=O)[C@H]([C@H](O)[C@H](O)CO)O6)[C@H](O)[C@H](O)[C@H]5O)[C@H](O)[C@H]4NC(C)=O)[C@@H](O)[C@H](O[C@H]4O[C@H](CO)[C@@H](O)[C@H](O)[C@@H]4O[C@@H]4O[C@H](CO)[C@@H](O[C@@H]5O[C@H](CO[C@]6(C(=O)O)C[C@H](O)[C@@H](NC(C)=O)[C@H]([C@H](O)[C@H](O)CO)O6)[C@H](O)[C@H](O)[C@H]5O)[C@H](O)[C@H]4NC(C)=O)[C@@H]3O)[C@H](O)[C@H]2NC(C)=O)[C@H](O)[C@H]1NC(C)=O)C(=O)N[C@@H](Cc1c[nH]c2ccccc12)C(=O)N[C@@H](CC(C)C)C(=O)N[C@H](C(=O)N[C@@H](CCCCN)C(=O)NCC(=O)N[C@@H](CSCC(=O)N[C@@H]1O[C@H](CO)[C@@H](O[C@@H]2O[C@H](CO)[C@@H](O[C@@H]3O[C@H](CO[C@H]4O[C@H](CO)[C@@H](O)[C@H](O)[C@@H]4O[C@@H]4O[C@H](CO)[C@@H](O[C@@H]5O[C@H](CO[C@]6(C(=O)O)C[C@H](O)[C@@H](NC(C)=O)[C@H]([C@H](O)[C@H](O)CO)O6)[C@H](O)[C@H](O)[C@H]5O)[C@H](O)[C@H]4NC(C)=O)[C@@H](O)[C@H](O[C@H]4O[C@H](CO)[C@@H](O)[C@H](O)[C@@H]4O[C@@H]4O[C@H](CO)[C@@H](O[C@@H]5O[C@H](CO[C@]6(C(=O)O)C[C@H](O)[C@@H](NC(C)=O)[C@H]([C@H](O)[C@H](O)CO)O6)[C@H](O)[C@H](O)[C@H]5O)[C@H](O)[C@H]4NC(C)=O)[C@@H]3O)[C@H](O)[C@H]2NC(C)=O)[C@H](O)[C@H]1NC(C)=O)C(=O)NCC(=O)O)C(C)C` [Example 5, 30,36Cys-disialo oligosaccharide Chain Added GLP-1 Peptide], the “Relative Resistance” value was 7.5.
